# Assay results reported in the supplement of paper PMC10307832.
# Legend:
# Assay in all cases: relative viability (nuclei count vs DMSO), 5 days (fraction); higher = more cells survive
# ABC-1 = tested on: ABC-1
# Outline: (§1)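 A single step with final 0.05% Triton X-100, 1% formaldehyde and 1 ug/ml Hoechst fixed the cells and stained nuclei 5 days after treatment. Lung cancer cell lines in 1536-well plates had been treated by pin tool the day after seeding with one drug alone or a fixed anchor-drug dose plus five library-drug doses (not always all listed) in √10 steps, and nuclei were counted on 4× images. Relative viability is the ratio of nuclei in treated wells to nuclei in vehicle wells, taken as the median of duplicate plates.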
# COR-L23 = tested on: COR-L23
# Outline: as §1
# EPLC-272H = tested on: EPLC-272H
# Outline: as §1
# HARA = tested on: HARA
# Outline: as §1
# HCC-15 = tested on: HCC-15
# Outline: as §1
# HCC-44 = tested on: HCC-44
# Outline: as §1
# HOP-62 = tested on: HOP-62
# Outline: as §1
# LC-2-ad = tested on: LC-2-ad
# Outline: as §1
# LU99A = tested on: LU99A
# Outline: as §1
# NCI-H1355 = tested on: NCI-H1355
# Outline: as §1
# NCI-H1651 = tested on: NCI-H1651
# Outline: as §1
# NCI-H1915 = tested on: NCI-H1915
# Outline: as §1
# NCI-H1993 = tested on: NCI-H1993
# Outline: as §1
# NCI-H2023 = tested on: NCI-H2023
# Outline: as §1
# NCI-H2085 = tested on: NCI-H2085
# Outline: as §1
# NCI-H2126 = tested on: NCI-H2126
# Outline: as §1
# NCI-H2347 = tested on: NCI-H2347
# Outline: as §1
# NCI-H650 = tested on: NCI-H650
# Outline: as §1
# NCI-H838 = tested on: NCI-H838
# Outline: as §1
# PC-14 = tested on: PC-14
# Outline: as §1
# SW 1573 = tested on: SW 1573
# Outline: as §1
# UMC-11 = tested on: UMC-11
# Outline: as §1
smiles,measurement,setting,value
CC(=O)O[C@@]12CO[C@@H]1C[C@H](O)[C@@]1(C)C(=O)[C@H](O)C3=C(C)[C@@H](OC(=O)[C@H](O)[C@@H](NC(=O)OC(C)(C)C)c4ccccc4)C[C@@](O)([C@@H](OC(=O)c4ccccc4)[C@H]21)C3(C)C [Docetaxel] + Cc1nc(NC(=O)N2CCC[C@H]2C(N)=O)sc1-c1ccnc(C(C)(C)C(F)(F)F)c1 [Alpelisib] (partner 2 µM),relative viability,ABC-1; first compound 0.0002 µM,0.826
same,relative viability,ABC-1; first compound 0.000632 µM,1.07
same,relative viability,ABC-1; first compound 0.002 µM,0.493
same,relative viability,ABC-1; first compound 0.006325 µM,0.464
same,relative viability,ABC-1; first compound 0.02 µM,0.337
same,relative viability,COR-L23; first compound 0.0002 µM,0.65
same,relative viability,COR-L23; first compound 0.000632 µM,0.718
same,relative viability,COR-L23; first compound 0.002 µM,0.261
same,relative viability,COR-L23; first compound 0.006325 µM,0.0995
same,relative viability,COR-L23; first compound 0.02 µM,0.0707
same,relative viability,EPLC-272H; first compound 0.0002 µM,0.928
same,relative viability,EPLC-272H; first compound 0.000632 µM,0.741
same,relative viability,EPLC-272H; first compound 0.002 µM,0.43
same,relative viability,EPLC-272H; first compound 0.006325 µM,0.147
same,relative viability,EPLC-272H; first compound 0.02 µM,0.106
same,relative viability,HARA; first compound 0.0002 µM,0.778
same,relative viability,HARA; first compound 0.000632 µM,0.525
same,relative viability,HARA; first compound 0.002 µM,0.282
same,relative viability,HARA; first compound 0.006325 µM,0.114
same,relative viability,HARA; first compound 0.02 µM,0.0727
same,relative viability,HCC-15; first compound 0.0002 µM,0.805
same,relative viability,HCC-15; first compound 0.000632 µM,0.467
same,relative viability,HCC-15; first compound 0.002 µM,0.196
same,relative viability,HCC-15; first compound 0.006325 µM,0.208
same,relative viability,HCC-15; first compound 0.02 µM,0.118
same,relative viability,HCC-44; first compound 0.0002 µM,0.758
same,relative viability,HCC-44; first compound 0.000632 µM,0.711
same,relative viability,HCC-44; first compound 0.002 µM,0.609
same,relative viability,HCC-44; first compound 0.006325 µM,0.149
same,relative viability,HCC-44; first compound 0.02 µM,0.0751
same,relative viability,HOP-62; first compound 0.0002 µM,0.899
same,relative viability,HOP-62; first compound 0.000632 µM,0.526
same,relative viability,LC-2-ad; first compound 0.0002 µM,0.538
same,relative viability,LC-2-ad; first compound 0.000632 µM,0.174
same,relative viability,LC-2-ad; first compound 0.002 µM,0.166
same,relative viability,LC-2-ad; first compound 0.006325 µM,0.11
same,relative viability,LC-2-ad; first compound 0.02 µM,0.0967
same,relative viability,LU99A; first compound 0.0002 µM,0.499
same,relative viability,LU99A; first compound 0.000632 µM,0.342
same,relative viability,LU99A; first compound 0.002 µM,0.299
same,relative viability,LU99A; first compound 0.006325 µM,0.184
same,relative viability,LU99A; first compound 0.02 µM,0.139
same,relative viability,NCI-H1355; first compound 0.0002 µM,0.726
same,relative viability,NCI-H1355; first compound 0.000632 µM,0.768
same,relative viability,NCI-H1355; first compound 0.002 µM,0.435
same,relative viability,NCI-H1355; first compound 0.006325 µM,0.313
same,relative viability,NCI-H1355; first compound 0.02 µM,0.189
same,relative viability,NCI-H1651; first compound 0.0002 µM,0.811
same,relative viability,NCI-H1651; first compound 0.000632 µM,0.944
same,relative viability,NCI-H1651; first compound 0.002 µM,0.248
same,relative viability,NCI-H1651; first compound 0.006325 µM,0.108
same,relative viability,NCI-H1651; first compound 0.02 µM,0.111
same,relative viability,NCI-H1915; first compound 0.0002 µM,1.02
same,relative viability,NCI-H1915; first compound 0.000632 µM,0.971
same,relative viability,NCI-H1915; first compound 0.002 µM,0.52
same,relative viability,NCI-H1915; first compound 0.006325 µM,0.183
same,relative viability,NCI-H1915; first compound 0.02 µM,0.135
same,relative viability,NCI-H1993; first compound 0.0002 µM,0.727
same,relative viability,NCI-H1993; first compound 0.000632 µM,0.62
same,relative viability,NCI-H1993; first compound 0.002 µM,0.741
same,relative viability,NCI-H1993; first compound 0.006325 µM,0.525
same,relative viability,NCI-H1993; first compound 0.02 µM,0.454
same,relative viability,NCI-H2023; first compound 0.0002 µM,0.49
same,relative viability,NCI-H2023; first compound 0.000632 µM,0.553
same,relative viability,NCI-H2023; first compound 0.002 µM,0.128
same,relative viability,NCI-H2023; first compound 0.006325 µM,0.137
same,relative viability,NCI-H2023; first compound 0.02 µM,0.0735
same,relative viability,NCI-H2085; first compound 0.0002 µM,0.93
same,relative viability,NCI-H2085; first compound 0.000632 µM,0.905
same,relative viability,NCI-H2085; first compound 0.002 µM,0.697
same,relative viability,NCI-H2085; first compound 0.006325 µM,0.609
same,relative viability,NCI-H2085; first compound 0.02 µM,0.378
same,relative viability,NCI-H2126; first compound 0.0002 µM,0.781
same,relative viability,NCI-H2126; first compound 0.000632 µM,0.753
same,relative viability,NCI-H2126; first compound 0.002 µM,0.541
same,relative viability,NCI-H2126; first compound 0.006325 µM,0.321
same,relative viability,NCI-H2126; first compound 0.02 µM,0.231
same,relative viability,NCI-H2347; first compound 0.0002 µM,1.01
same,relative viability,NCI-H2347; first compound 0.000632 µM,1.1
same,relative viability,NCI-H2347; first compound 0.002 µM,0.666
same,relative viability,NCI-H2347; first compound 0.006325 µM,0.525
same,relative viability,NCI-H2347; first compound 0.02 µM,0.438
same,relative viability,NCI-H650; first compound 0.0002 µM,1.02
same,relative viability,NCI-H650; first compound 0.000632 µM,0.518
same,relative viability,NCI-H650; first compound 0.002 µM,0.315
same,relative viability,NCI-H650; first compound 0.006325 µM,0.304
same,relative viability,NCI-H650; first compound 0.02 µM,0.212
same,relative viability,NCI-H838; first compound 0.0002 µM,0.978
same,relative viability,NCI-H838; first compound 0.000632 µM,0.974
same,relative viability,NCI-H838; first compound 0.002 µM,0.286
same,relative viability,NCI-H838; first compound 0.006325 µM,0.194
same,relative viability,NCI-H838; first compound 0.02 µM,0.157
same,relative viability,PC-14; first compound 0.0002 µM,0.895
same,relative viability,PC-14; first compound 0.000632 µM,0.998
same,relative viability,PC-14; first compound 0.002 µM,0.354
same,relative viability,PC-14; first compound 0.006325 µM,0.11
same,relative viability,PC-14; first compound 0.02 µM,0.0576
same,relative viability,SW 1573; first compound 0.0002 µM,0.739
same,relative viability,SW 1573; first compound 0.000632 µM,0.604
same,relative viability,SW 1573; first compound 0.002 µM,0.29
same,relative viability,SW 1573; first compound 0.006325 µM,0.233
same,relative viability,SW 1573; first compound 0.02 µM,0.185
same,relative viability,UMC-11; first compound 0.0002 µM,0.963
same,relative viability,UMC-11; first compound 0.000632 µM,0.841
same,relative viability,UMC-11; first compound 0.002 µM,0.195
same,relative viability,UMC-11; first compound 0.006325 µM,0.176
same,relative viability,UMC-11; first compound 0.02 µM,0.153
